Earlier results in US9901554B2, “Biodegradable compositions suitable for controlled release” (INGELL TECHNOLOGIES HOLDING B.V., priority 2011, dated 2018).
Read-outs that look alike come from different tables or passages of the source.

Row | Compound | solubility in water (small molecules and peptide) | solubility in water (model proteins)
1 | Cc1ccc(-c2cc(C(F)(F)F)nn2-c2ccc(S(N)(=O)=O)cc2)cc1 [celecoxib] | below 1 ug/ml | 
2 | lysozyme: water soluble model protein of around 16 kDa (Sigma) |  | above 10000 μg/ml
3 | CN(CC(O)CO)C(=O)c1c(I)c(NC(=O)C(CO)CO)c(I)c(C(=O)N(C)CC(O)CO)c1I (centres unmarked) [iobitridol] | above 5000 ug/ml | 
4 | bovine serum albumin: water soluble model protein (Sigma) |  | above 10000 μg/ml
5 | CC1(C)O[C@@H]2C[C@H]3[C@@H]4CCC5=CC(=O)C=C[C@]5(C)[C@@]4(F)[C@@H](O)C[C@]3(C)[C@]2(C(=O)CO)O1 [triamcinolone acetonide] | below 20 ug/ml | 
